Like-named read-outs stand apart in the source and are kept apart here. Marks after values point to notes of the source that are not given here.
Legend:
[1] = Fluorescence titration with Ca2+ in calcium calibration buffer (apparent dissociation constant, FEF); assay type: binding; conditions: for FEF, fluorescence enhancement factor (Fmax-Fmin)/Fmin: one-photon, complexation with Ca2+ in CB
Experimental: (§1) A dissociation constant (Kd) for binding the probe to Ca^2+ was measured using a conventionally known method. Calcium calibration buffers (CBs; 10 mM 3-[N-morpholino]propanesulfonic acid [MOPS], 100 mM KCl, pH 7.2) containing Ca^2+ at concentrations of 0 to 40 μM were prepared using a calcium calibration buffer kit (Biotium, CA, USA). A buffer containing […] or more of Ca^2+ was prepared by adding an appropriate amount of CaCl2 to a MOPS buffer. Probes (BCa-3°mem at a concentration of 0.3 μM and BCa-1 and BCa-2mito at concentrations of 0.1 μM) were added to calcium CB and fluorescence intensity was measured. Each Kd was calculated through a resultant titration curve. In addition, in order to evaluate a fluorescence titration of FHEt-1lyso, the fluorescence intensity was measured by adding FHEt-1lyso probe at a concentration of 0.6 μM in a universal buffer (UB; 0.1 M citric acid, 0.1 M KH2PO4, 0.1 M Na2B4O7, 0.1 M tris[hydroxymethyl]aminomethane, 0.1 M KCl) at pH 4 to 11. The pKa value was calculated through a titration curve.

HeLa cells [2] = assay: TPM detection of cytoplasmic Ca2+, histamine-induced oscillation; assay type: cell-based
Experimental: The mixture was cultured (incubated) at 37° C.
Before and after adding histamine dihydrochloride (100 μM, Sigma-Aldrich) to HBSS, Ca^2+ oscillation was evaluated by TPEF intensity monitoring in HeLa cells labeled with BCa-1-AM (2 μM).
Whether BCa-1 may detect Ca^2+ in the cytoplasm was evaluated. […] The increase and decrease of the TPEF intensity were repeated for 800 seconds, which was consistent with the results of previous histamine-induced Ca oscillation studies. Accordingly, it was confirmed that BCa-1 may target the cytoplasm and detect Ca^2+ in the cytoplasm (FIG. 16).

HeLa cells [3] = assay: Dual-color TPM of cytoplasmic Ca2+ and lysosomal pH, monensin; assay type: cell-based; conditions: monensin 20 μM
Experimental: To simultaneously monitor changes in lysosomal pH and cytoplasmic [Ca^2+], HeLa cells were co-labeled with a mixture of BCa-1-AM (3 μM) and FHEt-1lyso (1 μM). The cells were washed twice with RB, once with RB containing 5 mM EGTA, and twice with RB containing 0.1 mM EGTA. The TPEF intensity of the cells was measured before and after adding monensin (20 μM, Sigma-Aldrich) to EtOH.
Whether BCa-1 and FHEt-1lyso could be used to simultaneously monitor changes in cytoplasmic [Ca^2+ ] and lysosomal pH during dual-color TPM was evaluated. […] Accordingly, it was confirmed that BCa-1 and FHEt-1lyso could be used to simultaneously monitor changes in cytoplasmic [Ca^2+] and lysosomal pH in live cells during dual-color TPM.

HeLa cells [4] = tested on: HeLa cells
Experimental: HeLa cells were purchased from the Korean Cell Line Bank (Seoul, Korea). […] Before two days of imaging, HeLa cells (5×10^4/mL) were plated on a confocal glass bottom dish (#200350, SPL Life Sciences, Gyonggi-do, Korea). The cells were washed with an aqueous buffer (pH 7.4), a Hank's balanced salt solution (HBSS; LB003-02, WelGene Inc., Gyeongsangbuk-do, Korea), or a Ringer's solution (RB; 124 mM NaCl, 26 mM NaHCO3, 10 mM d-glucose, 1.3 mM MgSO4, 3 mM KCl, 1.25 mM NaH2PO4) unless otherwise specified. Thereafter, the probe (0.5 to 3 μM) and Pluronic® F-127 (0.03%, Sigma-Aldrich, St. Louis, MO, USA) were added to the cells in one of the three aqueous buffers (1.0 mL). The mixture was cultured (incubated) at 37° C. (BCa-1-AM and BCa-2mito-AM) for 40 minutes or at room temperature (RT; BCa-3mem) for 10 minutes. The cells labeled with the probe were washed 3 times with each corresponding buffer before imaging.

[5] = Metal ion selectivity, relative fluorescence intensity in MOPS buffer; conditions: for Response to Zn2+ and Mn2+: 100 μM; for Response to Zn2+ and Mn2+ / Response to Mg2+, Fe2+, Cu2+, Co2+: MOPS pH 7.2; for Response to Mg2+, Fe2+, Cu2+, Co2+: Mg2+ 2 mM, Co2+ 100 μM; for Selectivity for Ca2+: versus competing metal ions
Experimental: FIG. 8 is graphs showing relative fluorescence intensities of (a) BCa-1, (b) BCa-2mito, or (c) BCa−3°mem in the presence of 2 mM Mg^2+ or 100 μM Zn^2+, Mn^2+, Fe^2+, Cu^2+, or Co^2+ (black bars) and according to subsequent addition of 100 μM Ca^2+ (red bars) in a MOPS buffer (30 mM 3[N-morpholino]propanesulfonic acid, 100 mM KCl, pH 7.2). At this time, excitation wavelengths are (a) 363 nm, (b) 355 nm, and (c) 350 nm, respectively.

[6] = Fluorescence quantum yield; assay type: physicochemical
Experimental: Absorption and emission spectra of a two-photon probe (TP probe) were measured using an Agilent 8453 diode array UV-Vis spectrophotometer and a Hitachi fluorescence spectrophotometer F-7000 system using a previously reported method (Chem. Asian J. 2015, 10(10):2240-2249). Fluorescence quantum yield (Φ) was measured by a method used in another study (Anal. Chem. 2011, 83(4):1232-1242) using Coumarin 540A. Two-photon (TP) excitation was implemented using a mode-locked Ti:sapphire laser (Chameleon, 90 MHz, 200 fs; Coherent Inc.).
All of the two-photon probe compounds emitted weak fluorescence at a maximum emission value (4) of 464 to 466 nm and fluorescence quantum yields (0) of 0.027 to 0.063 in CB (10 mM MOPS, 100 mM KCl, pH 7.2). […] The low fluorescence quantum yield (0) values observed with these probes may contribute to efficient photo-induced electron transfer (PeT) from the receptor to the fluorophore (Table 1).

[7] = Two-photon action cross-section (Φδ); assay type: physicochemical; conditions: for Φδmax, maximum TP action cross-section: 750 nm, excess Ca2+ (BCa probes) or pH 4.3 (FHEt-1lyso), error ±15%; for Φδ values: absence of Ca2+ (BCa-3°mem) / pH 11 (FHEt-1lyso)
Experimental: (§2) Φδ and Φδeff for the probes were evaluated using the fluorescence method as reported in other studies (Chem. Asian J. 2015, 10(10):2240-2249).
To evaluate the brightness of the TPM image, a TP action cross-section (Φδ) was measured by a conventionally known method.

HeLa cells [8] = assay: Effective TP action cross-section (Φδeff) in probe-labeled cells; assay type: cell-based; conditions: 750 nm
Experimental: as §2

[9] = Water solubility in aqueous buffer; assay type: physicochemical
Experimental: The water solubility of BCa-1, BCa-2mito, BCa−3°mem, and FHEt-1lyso in an aqueous buffer (pH 7.4) was evaluated using a conventional fluorescence technique (Chem. Asian J. 2015, 10(10):2240-2249).

HeLa cells [10] = assay: TPM detection of Ca2+ in plasma membrane; assay type: cell-based
Experimental: HeLa cells were purchased from the Korean Cell Line Bank (Seoul, Korea). The cells were cultured by a method described in previous studies (Chem. Asian J. 2015, 10(10):2240-2249). Before two days of imaging, HeLa cells (5×10^4/mL) were plated on a confocal glass bottom dish (#200350, SPL Life Sciences, Gyonggi-do, Korea). The cells were washed with an aqueous buffer (pH 7.4), a Hank's balanced salt solution (HBSS; LB003-02, WelGene Inc., Gyeongsangbuk-do, Korea), or a Ringer's solution (RB; 124 mM NaCl, 26 mM NaHCO3, 10 mM d-glucose, 1.3 mM MgSO4, 3 mM KCl, 1.25 mM NaH2PO4) unless otherwise specified. Thereafter, the probe (0.5 to 3 μM) and Pluronic® F-127 (0.03%, Sigma-Aldrich, St. Louis, MO, USA) were added to the cells in one of the three aqueous buffers (1.0 mL). The mixture was cultured (incubated) at 37° C. (BCa-1-AM and BCa-2mito-AM) for 40 minutes or at room temperature (RT; BCa-3mem) for 10 minutes. The cells labeled with the probe were washed 3 times with each corresponding buffer before imaging.
(§3) TP microscopy (TPM) images were obtained using spectral confocal and multiphoton microscopy (Leica TCS SP2; Leica). TPM images of probe-labeled HeLa cells were obtained using a Leica TCS SP2 using a conventional method (Chem. Asian J. 2015, 10(10):2240-2249). Time-dependent changes in TPEF intensity were monitored and measured at intervals of 1.6 to 2.0 seconds in the xyt mode upon excitation at 750 nm. To monitor changes in [Ca^2+ ] in the plasma membrane, the cells were washed successively with RB containing 5, 0.1, and 0 mM of EGTA and then incubated with BCa-3mem (2 μM). The TPEF intensity was measured before and after adding CaCl2 (2 mM) to RB and EGTA (2 mM) in distilled water.
First, whether BCa-3mem may detect Ca^2+ in the plasma membrane was evaluated.

HeLa cells [11] = assay: TPM lysosome colocalization with BLT-blue; assay type: cell-based
Text: as §3
Whether FHEt-1lyso may detect H^+ in the lysosome was evaluated. […] Therefore, it was confirmed that FHEt-1lyso had the ability to detect H^+ in the lysosome by targeting the lysosome.

[12] = Fluorescence titration of FHEt-1lyso against pH in universal buffer (pKa); assay type: physicochemical; conditions: for pKa: universal buffer (UB)
Experimental: as §1
Meanwhile, the fluorescence titration of FHEt-1lyso was performed in UB at pH 4 to 11. […] Therefore, it was confirmed that FHEt-1lyso may detect pH in live cells.

[13] = from fluorescence titration curve, CB, read-out: Dissociation constant Kd
[14] = in the absence of excess Ca2+, CB pH 7.2
[15] = in the presence of excess Ca2+ (in parentheses)

Compound | Kd [1, 13] [nM] | FEF, fluorescence enhancement factor (Fmax-Fmin)/Fmin [1] | Response to Zn2+ and Mn2+ [5] | Response to Mg2+, Fe2+, Cu2+, Co2+ [5] | Selectivity for Ca2+ [5] | Fluorescence quantum yield Φ [6, 14] | Fluorescence quantum yield Φ [6, 15] | Φδmax, maximum TP action cross-section [7] | Φδeff, effective TP action cross-section (HeLa cells [8]) [GM] | Φδ values [7] | other results
COCCOCCOc1ccc2oc(-c3ccc4cc(NCC(=O)Nc5ccc(N(CC(=O)OCOC(C)=O)CC(=O)OCOC(C)=O)c(OCCOc6ccccc6N(CC(=O)OCOC(C)=O)CC(=O)OCOC(C)=O)c5)ccc4c3)nc2c1 [BCa-1-AM] | 180 |  |  |  |  |  |  |  |  |  | Duration of repeated increase and decrease of TPEF intensity (HeLa cells [2]; after histamine): 800 s; TPEF intensity on adding histamine (HeLa cells [2]; histamine 100 μM, cytoplasm): increased and then decreased; TPEF intensity in the cytoplasm on monensin addition (HeLa cells [3]; 380 to 480 nm): simultaneously increased
CC(=O)OCOC(=O)CN(CC(=O)OCOC(C)=O)c1ccc(NC(=O)CNc2ccc3cc(-c4nc5cc(OCCC[P+](c6ccccc6)(c6ccccc6)c6ccccc6)ccc5o4)ccc3c2)cc1OCCOc1c(F)cccc1N(CC(=O)OCOC(C)=O)CC(=O)OCOC(C)=O.[Br-] [BCa-2mito-AM] | 2700 |  |  |  |  |  |  |  |  |  | Pearson's colocalization coefficient (A) (HeLa cells [4]; with MitoTracker Red): 0.84
O=C([O-])CN(CC(=O)[O-])c1ccc(NC(=O)CNc2ccc3cc(-c4nc5cc(OCCC[P+](c6ccccc6)(c6ccccc6)c6ccccc6)ccc5o4)ccc3c2)cc1OCCOc1c(F)cccc1N(CC(=O)[O-])CC(=O)[O-].[Br-].[K+].[K+].[K+].[K+] [BCa-2mito] | 2700 | 10 | moderate | weak | high | 0.049^d | (0.50) | 70 10^−50 cm^4s/photon (GM) | 2000 |  | TPEF intensity in the cytoplasm on FCCP treatment (HeLa cells [4]; FCCP): increased temporarily in the cytoplasm and then gradually decreased to a baseline; TPEF intensity in the mitochondria on FCCP treatment (HeLa cells [4]; FCCP): rapidly decreased
CCCCCCOc1ccc2oc(-c3ccc4cc(NCC(=O)Nc5ccc(N(CC(=O)[O-])CC(=O)[O-])c(OCC(=O)N6CCOCC6)c5)ccc4c3)nc2c1.[K+].[K+] [BCa-3mem] |  |  |  |  |  |  |  |  | 4800 |  | Aqueous solubility [9]: too low; TPEF intensity upon addition of Ca2+ (HeLa cells [10]; Ca2+ 2 mM): increased; TPEF intensity during treatment with EGTA (HeLa cells [10]; EGTA 2 mM): decreased; Persistence of plasma membrane signals (HeLa cells [10]; labeled HeLa cells): at least 1 hour
O=C([O-])CN(CC(=O)[O-])c1ccc(NC(=O)CNc2ccc3cc(-c4nc5ccccc5o4)ccc3c2)cc1OCC(=O)N1CCOCC1.[K+].[K+] [BCa-3°mem] |  | 26 | moderate | weak | high | 0.027^d | (0.72) | 60 10^−50 cm^4s/photon (GM) | 4800 | quite low | FEF, fluorescence enhancement factor (in parentheses) ([1]; TP process, complexation with Ca2+): (25); Kd ([1]; TP process, read-out: Kd^TP): 95000 nM; TPM images in contrast to BCa-3mem (HeLa cells [10]; HeLa cells, 0.5 μM probe): much darker and blurry
CCN(CC)c1ccc(NC(=O)CNc2ccc3c(c2)C(C)(CC(=O)NCCN(C)C)c2cc(C(C)=O)ccc2-3)cc1 (centres unmarked) [FHEt-1lyso] |  |  |  |  |  |  |  | 70 10^−50 cm^4s/photon (GM) | 21000 | quite low | Pearson's colocalization coefficient (A) (HeLa cells [11]): 0.86; FEF, fluorescence enhancement factor (in parentheses) ([12]; TP process, protonation, UB): (24); FEF, fluorescence enhancement factor ([12]; one-photon, protonation, UB): 25; pKa ([12]; TP process, UB, read-out: pKa^TP (in parentheses)): 6.6; pKa ([12]; one-photon fluorescence titration, UB pH 4 to 11, read-out: pKa): 6.5; Fluorescence quantum yield Φ ([6]; at pH 4.3 (in parentheses)): (0.33); TPEF intensity in the lysosome on monensin addition (HeLa cells [3]; 550 to 660 nm): rapidly decreased

— US20230333019A1, “TWO-PHOTON FLUORESCENT PROBES FOR SIMULTANEOUSLY DETECTING CALCIUM IONS IN ORGANELLES AND LYSOSOMAL PROTONS” (Korea University Research and Business Foundation, priority 2022, published 2023)
